# Measurements published in article PMC11794875, “Molecular basis for azetidine-2-carboxylic acid biosynthesis” (Nature Communications, 2025).
# Like-named read-outs stand apart in the source and are kept apart here.
# What was measured:
# AzeJ [1] = biological target: T1, AzeJ (Pseudomonas aeruginosa, UniProt Q9HYR0); assay: X-ray crystal structure, […] Å; format: binding; settings: co-crystallised with 2 mM SAM, pH 7.0 or 7.2, formed in crystal, active site
# T1 construct: gene PA3335; N-terminal His6-SUMO fusion in pETDuet, codon-optimised, SUMO tag cleaved by Ulp1; E. coli BL21 Gold (DE3); homodimer
# T1 sequence (Q9HYR0 entry or part of it): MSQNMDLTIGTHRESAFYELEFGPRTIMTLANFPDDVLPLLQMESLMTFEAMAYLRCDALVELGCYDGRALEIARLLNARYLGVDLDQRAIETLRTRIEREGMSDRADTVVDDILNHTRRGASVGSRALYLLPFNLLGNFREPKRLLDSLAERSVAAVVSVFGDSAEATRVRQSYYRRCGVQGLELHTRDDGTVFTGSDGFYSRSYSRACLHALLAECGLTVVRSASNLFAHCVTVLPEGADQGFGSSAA
# AzeJ [2] = biological target: T1, AzeJ; format: binding; settings: 100 mM Tris-HCl, pH 8.0, 10 µM protein
# VioH = biological target: T2, VioH (Archangium violaceum, UniProt Z9G018KSM0); assay: in vitro AZE synthase activity assay, HPLC; format: biochemical; settings: without VioG partner
# T2 construct: N-terminal His6-SUMO fusion in pETDuet, codon-optimised, SUMO tag cleaved by Ulp1; E. coli BL21 Gold (DE3); monomer
# T2 sequence (Z9G018KSM0 1-236): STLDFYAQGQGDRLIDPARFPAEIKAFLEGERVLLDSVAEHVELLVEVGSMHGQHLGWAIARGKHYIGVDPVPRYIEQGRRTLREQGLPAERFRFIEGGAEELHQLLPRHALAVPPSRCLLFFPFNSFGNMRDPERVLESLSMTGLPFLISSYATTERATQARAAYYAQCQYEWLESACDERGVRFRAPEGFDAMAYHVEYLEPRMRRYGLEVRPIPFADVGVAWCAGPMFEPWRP
compound,measurement,setting,value
"O=C(O)[C@@H]1CCN1 [AZE, azetidine-2-carboxylic acid]","X-ray crystal structure, 1.95 Å",AzeJ [1]; with MTA,Fo-Fc electron density maps reveal that MTA and AZE are bound to the active site
"CSC[C@H]1O[C@@H](n2cnc3c(N)ncnc32)[C@H](O)[C@@H]1O [MTA, 5′-methylthioadenosine]","X-ray crystal structure, 1.95 Å",AzeJ [1]; with AZE,Fo-Fc electron density maps reveal that MTA and AZE are bound to the active site
"Nc1ncnc2c1ncn2[C@@H]1O[C@H](CSCC[C@H](N)C(=O)O)[C@@H](O)[C@H]1O [SAH, S-adenosyl-L-homocysteine]",dTm,AzeJ [2]; 0–1 mM SAH,"In the presence of SAM or SAH, the melting temperature of AzeJ increased"
"C[S+](CC[C@H](N)C(=O)O)C[C@H]1O[C@@H](n2cnc3c(N)ncnc32)[C@H](O)[C@@H]1O (some centres unmarked) [SAM, S-adenosylmethionine]",dTm,AzeJ [2]; 0–1 mM SAM,"In the presence of SAM or SAH, the melting temperature of AzeJ increased"
same,"in vitro AZE synthase activity assay, HPLC",VioH,in vitro observation that VioH alone had minimal catalytic activity (Fig. S8)
